The target of data set [1] is CnArg1 (IP3-4K from C. neoformans) (Cryptococcus neoformans var. grubii, UniProt J9W3G0). Briefly: Kinase-Glo enzyme inhibition assay, recombinant CnArg1. The data set is classed as biochemical. The conditions noted are these: 10 µM ATP, 50 µM IP3, 2.5 ng/µL enzyme, 10 min, room temperature, 5% DMSO; mean ± SEM. As for the experimental part:
(§1) The 2,6-disubstituted purine compounds are ATP-competitive IPK inhibitors. […] The amount of IP3 and kinase used for each recombinant enzyme was determined following the manufacturer’s instructions, and this concentration was used to assess the inhibitory properties of TNP analogues against each of the recombinant enzymes.
(§2) The analogues were dissolved in DMSO. For the assay, the inhibitors were added to the reaction mixture to achieve a final concentration of 50 µM in 5% DMSO (1:20 dilution). To achieve inhibitor concentrations lower than 50 µM in the assay, the inhibitor stock was first serially diluted two-fold in DMSO and added to the reaction mixture, to achieve concentrations ranging between 0.8 μM and 50 µM in 5% DMSO. Once all analogues and their dilution series had been added, the reaction was started by adding an optimal amount of recombinant IP3-4K enzyme. The reaction was stopped after 10-min incubation at room temperature by adding a 50 µL of Kinase-Glo® reagent. The mixture was incubated at room temperature in the dark for 10–15 min. Luminescence (RLU) was measured using a SpectraMax iD5 and an integration time of 0.5 s. Percent enzyme activity was defined as (RLUnegative − RLUsample)/(RLUnegative − RLUpositive) × 100. ‘Positive’ refers to 100% enzyme activity (no inhibitor used as the positive control), while ‘negative’ refers to 0% enzyme activity (no enzyme used as the negative control).
(§3) Next, we determined the inhibitory properties of TNP. TNP is an ATP-competitive inhibitor [34]. […] IP3 and enzyme concentrations were also optimised following the manufacturer’s instructions. […] This optimal amount of IP3 was then used to test varying concentrations of the kinase ranging from 0 to 20 ng/µL. The amount of kinase that produced luminescence values in the linear range of the kinase titration curve was deemed to be the optimal kinase amount.
A general note: Kinase-Glo measures the ATP left after a reaction by luminescence.

For data set [2], the system named is CnArg1 (IP3-4K from C. neoformans). The data set is described as above. The data set is classed as biochemical. The conditions noted are these: selectivity, ratio higher than 1 = more selective for CnArg1. On the procedure: as §1, §2, §3
In data set [3] the target is T1, HsIPMK (Homo sapiens, UniProt Q8NFU5). Briefly: Kinase-Glo enzyme inhibition assay, recombinant HsIPMK. Note: 6 ng/µL enzyme. The data set is classed as biochemical. Also noted: GST (N, cleaved yes); made in house; host or cells: E. coli BL21 (DE3); plasmid made by GenScript. As for the experimental part: as §1, §2, §3
The nature of data set [4]: Solubility observations. Conditions: for Solubility in enzyme assay conditions: 5% DMSO. The data set is classed as physicochemical.
Data set [5] deals with CaIpk2 (Candida albicans, UniProt Q59YE9). The conditions noted are these: 200 µM IP3, ATP 25–400 µM. On the procedure: (§4) The kinetic properties of the purified recombinant enzymes were determined and compared using a Kinase-Glo® Max Luminescent Kinase Assay kit (Promega, Madison, WI, USA) in a reaction buffer consisting of 20 mM HEPES pH 6.8, 100 mM NaCl, 6 mM MgCl2, 20 µg/mL BSA, 1 mM DTT [14]. The IP3 concentration was fixed at 200 µM. The ATP starting concentrations ranged between 25 µM to 400 µM and the ATP remaining after up to 10-min reaction time was assessed by adding Kinase-Glo® reagent. An ATP standard curve (0–500 µM) was also generated using the same kit. The ATP concentration remaining was measured as luminescence using a SpectraMax iD5 plate reader. The relative luminescence unit (RLU) was converted to ATP concentration using the ATP standard curve. The reaction velocity was calculated for each starting ATP concentration and the data was fitted to the Michaelis-Menten equation using GraphPad Prism 9 to obtain Vmax and Km values.

Data set [6] concerns the target T1, HsIPMK. Conditions: 200 µM IP3, ATP 25–400 µM. On the procedure: as §4
Data set [7] has as its system rat IPMK. Also noted: method as in PMID 24670057. The conditions noted are these: read-out: Km of rat IPMK for ATP; IP3 used as the substrate; cited from earlier work.
For data set [8], the target named is T1, HsIPMK. The conditions noted are these: read-out: Km for ATP, HsIPMK, cited from earlier work.

Entries after “also recorded” stand apart in the source; their conditions may differ. Read-outs that look alike come from different tables or passages of the source.

T1 sequence (Q8NFU5 whole entry): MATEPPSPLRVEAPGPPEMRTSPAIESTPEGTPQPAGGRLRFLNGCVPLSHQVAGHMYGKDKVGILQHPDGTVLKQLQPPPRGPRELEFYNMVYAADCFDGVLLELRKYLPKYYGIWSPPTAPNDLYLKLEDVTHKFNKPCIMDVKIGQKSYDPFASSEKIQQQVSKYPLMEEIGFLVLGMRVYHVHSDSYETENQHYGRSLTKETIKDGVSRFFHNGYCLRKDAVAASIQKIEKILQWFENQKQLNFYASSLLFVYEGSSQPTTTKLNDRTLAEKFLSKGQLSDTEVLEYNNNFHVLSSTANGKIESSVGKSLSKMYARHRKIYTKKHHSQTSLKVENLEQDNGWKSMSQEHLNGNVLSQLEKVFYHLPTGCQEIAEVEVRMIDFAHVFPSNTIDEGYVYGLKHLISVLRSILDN
CnArg1 (IP3-4K from C. neoformans) (Cryptococcus neoformans var. grubii, UniProt J9W3G0), sequence (J9W3G0 entry or part of it): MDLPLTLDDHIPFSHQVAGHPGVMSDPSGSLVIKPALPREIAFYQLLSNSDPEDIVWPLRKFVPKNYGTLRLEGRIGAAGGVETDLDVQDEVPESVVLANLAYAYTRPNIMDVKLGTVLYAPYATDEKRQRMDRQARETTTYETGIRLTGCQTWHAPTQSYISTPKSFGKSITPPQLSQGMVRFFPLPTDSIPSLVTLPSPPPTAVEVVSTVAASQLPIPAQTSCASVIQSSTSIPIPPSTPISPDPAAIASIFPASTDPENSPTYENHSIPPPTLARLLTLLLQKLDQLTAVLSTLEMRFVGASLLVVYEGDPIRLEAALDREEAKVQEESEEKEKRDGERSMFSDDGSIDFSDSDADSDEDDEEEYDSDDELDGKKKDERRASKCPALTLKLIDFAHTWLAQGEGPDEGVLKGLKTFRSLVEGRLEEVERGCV
CaIpk2, sequence (Q59YE9 1-350): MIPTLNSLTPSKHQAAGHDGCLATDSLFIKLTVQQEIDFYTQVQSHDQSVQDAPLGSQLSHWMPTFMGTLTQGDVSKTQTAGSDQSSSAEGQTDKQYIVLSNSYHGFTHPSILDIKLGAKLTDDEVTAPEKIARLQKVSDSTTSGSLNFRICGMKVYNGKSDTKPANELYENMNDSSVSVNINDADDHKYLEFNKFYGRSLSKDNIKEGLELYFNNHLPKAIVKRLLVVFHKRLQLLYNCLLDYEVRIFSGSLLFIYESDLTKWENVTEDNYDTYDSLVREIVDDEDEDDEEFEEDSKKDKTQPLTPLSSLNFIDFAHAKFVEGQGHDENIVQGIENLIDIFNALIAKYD

On to `COCCNc1nc(NCc2cccc(C(=O)O)c2)nc2[nH]cnc12` [Compound 34], for which the “CnArg1 IC50” value in data set [1] is “Not inhibitory”.
What is called IC50 is the midpoint of a concentration-inhibition curve. As for `FC(F)(F)Oc1ccccc1CNc1nc(NCc2ccccc2)c2nc[nH]c2n1` [Compound 20], the half-maximal inhibitory concentration (IC50) in data set [1] was 71 ± 12 µM.
Regarding `COCCNc1nc(Nc2ccc(OC)cc2)nc2[nH]cnc12` [Compound 40], the IC50 in data set [1] is 14 ± 1 µM; in data set [3], 5 ± 1 µM. For the same molecule, the “HsIPMK/CnArg1 IC50 ratio” value in data set [2] came to 0.4.
Regarding `FC(F)(F)c1ccc(CNc2nc(NCc3ccccc3)c3nc[nH]c3n2)cc1` [Compound 19], the “Solubility in enzyme assay conditions” value in data set [4] was “poorly soluble; also recorded: Low solubility—ND”.
For the molecule `COCCNc1nc(NCc2cccc(Br)c2)nc2[nH]cnc12` [Compound 31], the IC50 in data set [1] was 29 ± 3 µM; in data set [3] it was 43 ± 4 µM. Besides, the “HsIPMK/CnArg1 IC50 ratio” value in data set [2] is listed as 1.5.
Take `CC(C)n1cnc2c(NCc3ccccc3)nc(NCc3cccc(C(F)(F)F)c3)nc21` [Compound 45]: the “CnArg1 IC50” value in data set [1] is “did not have any inhibitory activity”.
Turning to `COCCNc1nc(NCc2cccc(O)c2)nc2[nH]cnc12` [Compound 36], in data set [1], the concentration for half-maximal inhibition (IC50) was 55 ± 6 µM.
The same measure, in the same setting: the result for `OCCNc1nc(NCc2ccccc2)c2[nH]cnc2n1` [Compound 28] reads 127 ± 32 µM.
`COc1ccccc1CNc1nc(NCc2ccccc2)c2nc[nH]c2n1` [Compound 24]: the concentration for half-maximal inhibition (IC50) in data set [1] worked out at 24 ± 1 µM; in data set [3], 89 ± 9 µM. Besides, the “HsIPMK/CnArg1 IC50 ratio” value in data set [2] is on record as 3.7.
For the molecule `Cn1ccnc1CNc1nc(NCc2ccccc2)c2nc[nH]c2n1` [Compound 26], the “CnArg1 IC50” value in data set [1] is listed as “Not inhibitory”.
On to `FC(F)(F)c1cccc(CNc2nc(N3CCOCC3)c3nc[nH]c3n2)c1` [Compound 41], for which the half-inhibitory concentration (IC50) in data set [1] was found to be 24 ± 1 µM; in data set [3] it was 82 ± 9 µM. Moreover, in data set [2], the “HsIPMK/CnArg1 IC50 ratio” value was 3.4.
The like results for `FC(F)Oc1cccc(CNc2nc(NCc3ccccc3)c3nc[nH]c3n2)c1` [Compound 10] were, in that order, 20 ± 1 µM, 55 ± 2 µM and 2.8.
For `COCCNc1nc(NCc2cccnc2)nc2[nH]cnc12` [Compound 35], in data set [1], the 50% inhibitory concentration (IC50) came out at 87 ± 9 µM.
As to `COCCNc1nc(NCc2cccc(I)c2)nc2[nH]cnc12` [Compound 32], the values for the half-maximal inhibitory concentration (IC50) in data set [1] and in data set [3] were 12 ± 1 µM and 48 ± 3 µM, respectively. In data set [2], the “HsIPMK/CnArg1 IC50 ratio” value was 4.0.
For the molecule `COCCNc1nc(NCc2cccc(C(=O)OC)c2)nc2[nH]cnc12` [Compound 33], the 50% inhibitory concentration (IC50) was 38 ± 5 µM in data set [1] and 144 ± 55 µM in data set [3]. The “HsIPMK/CnArg1 IC50 ratio” value in data set [2] came out at 3.8.
For `O=C(O)c1cccc(CNc2nc(NCc3ccccc3)c3nc[nH]c3n2)c1` [Compound 17], the IC50 in data set [1] was 45 ± 3 µM.
Same read-out and setting: the result for `FC(F)(F)Oc1cccc(CNc2nc(NCc3ccccc3)c3nc[nH]c3n2)c1` [Compound 12] reads 77 ± 14 µM.
For the molecule `COCCNc1nc(NCc2cccc(C(F)(F)F)c2)nc2[nH]cnc12` [Compound 30], in data set [2], the “HsIPMK/CnArg1 IC50 ratio” value came to 2.4.
In the case of `FC(F)(F)c1cccc(CNc2nc(NCc3cccnc3)c3nc[nH]c3n2)c1` [Compound 43], the 50% inhibitory concentration (IC50) was found to be 27 ± 2 µM in data set [1] and 75 ± 8 µM in data set [3]. Moreover, in data set [2], the “HsIPMK/CnArg1 IC50 ratio” value was 2.8.
As to `COCCNc1nc(NCc2ccccc2)c2nc[nH]c2n1` [Compound 29], in data set [1], the IC50 worked out at 75 ± 9 µM.
As to `COCCNc1nc(NCc2cccc(Br)c2)nc2c1ncn2C` [Compound 46], the “CnArg1 IC50” value in data set [1] was “did not have any inhibitory activity”.
On to `FC(F)(F)c1cccc(CNc2nc(NCc3ccccc3)c3nc[nH]c3n2)c1` [Compound 9], for which the half-inhibitory concentration (IC50) stood at 28 ± 7 µM in data set [1] and 32 ± 3 µM in data set [3]. For the same molecule, the “HsIPMK/CnArg1 IC50 ratio” value in data set [2] came to 1.1. In addition, the “Solubility in SPR analysis” value in data set [4] (SPR running buffer with 5% DMSO, KD could not be determined) is “Poor solubility—ND”.
As to `Brc1cccc(CNc2nc(NCc3ccccc3)c3nc[nH]c3n2)c1` [Compound 14], the IC50 in data set [1] came to 44 ± 2 µM.
In the case of `COc1cccc(CNc2nc(NCc3ccccc3)c3nc[nH]c3n2)c1` [Compound 13], in data set [2], the “HsIPMK/CnArg1 IC50 ratio” value is recorded as 6.0.
Turning to `Fc1ccc(CNc2nc(NCc3ccccc3)c3nc[nH]c3n2)cc1` [Compound 23], the half-inhibitory concentration (IC50) in data set [1] was 21 ± 1 µM; in data set [3], 55 ± 4 µM. In addition, the “HsIPMK/CnArg1 IC50 ratio” value in data set [2] came out at 2.6.
On to `COCCNc1nc(NCc2ccc(OC)cc2)nc2[nH]cnc12` [Compound 38], for which, in data set [1], the half-inhibitory concentration (IC50) amounted to 44 ± 6 µM.
Regarding `COCCNc1nc(NCCc2ccc(OC)cc2)nc2[nH]cnc12` [Compound 39], the figures for the 50% inhibitory concentration (IC50) in data set [1] and in data set [3] were 22 ± 3 µM and 19 ± 1 µM, respectively. Further, in data set [2], the “HsIPMK/CnArg1 IC50 ratio” value is reported as 0.9.
As to `FC(F)(F)c1cccc(CNc2nc(NC3CCOCC3)c3nc[nH]c3n2)c1` [Compound 42], the “HsIPMK/CnArg1 IC50 ratio” value in data set [2] is 3.7.
As to `FC(F)(F)c1ccccc1CNc1nc(NCc2ccccc2)c2nc[nH]c2n1` [Compound 18], the “Solubility in enzyme assay conditions” value in data set [4] was “poorly soluble; also recorded: Low solubility—ND”.
`c1ccc(CNc2nc(NCc3ncccn3)nc3[nH]cnc23)cc1` [Compound 25]: the “CnArg1 IC50” value in data set [1] was “Not inhibitory”.
With `FC(F)(F)Oc1ccccc1CNc1nc(NCc2ccccc2)c2nc[nH]c2n1` [Compound 21], the IC50 in data set [1] amounted to 57 ± 6 µM.
Turning to `c1ccc(CNc2nc(NCC3CCOCC3)nc3[nH]cnc23)cc1` [Compound 27], the values for the half-maximal inhibitory concentration (IC50) in data set [1] and in data set [3] were 35 ± 2 µM and 123 ± 80 µM, respectively. Besides, in data set [2], the “HsIPMK/CnArg1 IC50 ratio” value was found to be 3.5.
In the case of `COC(=O)c1cccc(CNc2nc(NCc3ccccc3)c3nc[nH]c3n2)c1` [Compound 16], the IC50 amounted to 14 ± 1 µM in data set [1] and 48 ± 2 µM in data set [3]. The “HsIPMK/CnArg1 IC50 ratio” value in data set [2] was 3.4.
As to `Cc1cccc(CNc2nc(NCc3ccccc3)c3nc[nH]c3n2)c1` [Compound 11], the “Solubility in enzyme assay conditions” value in data set [4] was “poorly soluble; also recorded: Low solubility—ND”.
One may read the Km as the substrate concentration at which the rate is half of its maximum. With `Nc1ncnc2c1ncn2[C@@H]1O[C@H](COP(=O)(O)OP(=O)(O)OP(=O)(O)O)[C@@H](O)[C@H]1O` [ATP], in data set [5], the “Vmax, CaIpk2” value came to 21 ± 3 µmol ATP/mg protein/min. In addition, the “Vmax, HsIPMK” value in data set [6] came out at 0.6 ± 0.07 µmol ATP/mg protein/min. Moreover, the Km is 128 ± 35 µM in data set [6] (read-out: Km for ATP, HsIPMK, mean ± SEM); 64 µM in data set [7]; 10 µM in data set [8] (IP4 used as the substrate); 61 ± 6 µM in data set [8] (PIP2 used as the substrate).
On to `FC(F)(F)Oc1ccc(CNc2nc(NCc3ccccc3)c3nc[nH]c3n2)cc1` [Compound 22], for which the “CnArg1 IC50” value in data set [1] is “Not inhibitory”.
In the case of `COc1ccc(CNc2nc(NCc3cccc(C(F)(F)F)c3)nc3[nH]cnc23)cc1` [Compound 44], the IC50 in data set [1] was 82 ± 13 µM.
As for `NCc1cccc(CNc2nc(NCc3ccccc3)c3[nH]cnc3n2)c1` [Compound 15], the IC50 in data set [1] came to 46 ± 22 µM.

These data come from paper PMC9599641, “TNP Analogues Inhibit the Virulence Promoting IP3-4 Kinase Arg1 in the Fungal Pathogen Cryptococcus neoformans” (Biomolecules, 2022).
